# Key:
# [1] = tested on: pulmonary hypertension in ARDS; assay: Inhaled NO versus i.v. prostacyclin in adult with ARDS (first subject); assay type: in vivo, human
# Procedure: First subject. The patient had suffered for three weeks from adult respiratory distress syndrome (ARDS) due to aspiration pneumonia. There was diffuse pulmonary edema and a large QVA /QT (30%). After 21 days of venovenous extracorporeal membrane oxygenator support (3 liters/min blood flow), the mean PAP was 55 mm Hg.
# The short term effects of inhaled nitric oxide were compared with those of i.v. prostacyclin (PGI2; 5ng/kg/min). Mean pulmonary arterial pressure (PAP), right ventricular ejection fraction (RVEF) and gas exchange variables were evaluated. RVEF was assessed by thermodilution, and gas exchange alterations were analyzed using the multiple inert gas elimination technique (MIGET). MIGET and RVEF date were obtained on two different occasions. Ventilator settings were tidal volume 6 ml/kg, respiratory rate 14/min, Fi O2 0.4-0.48 and 5 cm H2 O of PEEP (positive end expiratory pressure).
# [2] = tested on: airway resistance; assay: Methacholine infusion alone (stability of bronchoconstrictor model); assay type: in vivo, Hartley strain guinea pigs; conditions: methacholine infusion (FIG. 13)
# Procedure: (§1) Male Hartley strain guinea pigs (300-440g body wt) were anesthetized with α-chloralose (50 mg/kg) and urethane (500 mg/kg) (Drazen et al., J. Appl. Physiol. 48:613-618, 1980). A tracheostomy was performed, and the animals were intubated with a tubing adaptor (ID 1.65 mm) and ventilated with a small animal ventilator (Harvard Apparatus, a division of Ealing Scientific, Natick, Mass.) at 8 ml/kg and 60 breaths/min. A jugular vein was cannulated for intravenous administration of drugs. The chest was opened by bilateral excision of a portion of the ribs anteriorly so that the lungs were exposed to atmospheric pressure (Shore and Drazen, J. Appl. Physiol. 67:2504-2511, 1989). A positive end expiratory pressure of 3-4 cmH2 O was provided.
# (§2) Guinea pigs were then placed inside a plethysmograph (Amdur and Mead, Am. J. Physiol. 192:363-368, 1958), that was connected to a large reservoir containing copper mesh to maintain the plethysmograph isothermal. Plethysmograph pressure was measured with a differential pressure transducer (Celesco, Canoga Park, Calif.); the opposite side of this transducer was connected to a similar reservoir. Pressure at the airway opening was measured from a side tap in the tracheal canula. Transpulmonary pressure was measured with a differential pressure transducer (Celesco) as the difference between airway opening pressure and the pressure inside the plethysmograph. […]
# [3] = tested on: methacholine bronchoconstriction; assay: NO and terbutaline aerosol during methacholine infusion; assay type: in vivo, Hartley strain guinea pigs; conditions: NO gas before or after inhaled terbutaline
# Procedure: as §1, §2
# [4] = tested on: persistent pulmonary hypertension of the newborn (PPHN); assay type: in vivo, human; conditions: standard dosage, infused, during nitric oxide
# Procedure: First subject. Through compassionate use, nitric oxide was administered to an infant suffering from persistent pulmonary hypertension and congenital heart disease. As a result of prolonged ventilation, absence of a preductal arterial blood sampling site, and the existence of the atrial-ventricular (AV) canal, the patient was not included in the PPHN study mentioned above.
# The patient was a 3225 gm, full term person who had been treated with extracorporeal membrane oxygenation (ECMO) because of the severity of their congenital heart disease and profound hypoxemia. They had been taken off ECMO and was being maintained intubated and ventilated in the newborn intensive care unit. They subsequently became progressively hypoxemic, as reflected in their post-ductal pulse oximetry (POX) values. By the time they were taken to the catheterization laboratory to confirm the existence of the A-V canal and to determine if some emergent cardiac surgery was needed, they were receiving maximal medical and ventilatory life support and remained dangerously hypoxemic. Under these circumstances, we were granted consent to treat the patient with nitric oxide.
# Upon arrival to the catheterization laboratory, the patient was extremely cyanotic. They were treated with fentanyl, oxygen, hyperventilation and intravenous fluid boluses to stabilize them prior to administering NO.
# We utilized a regulator to step-down the pressure of the NO into a blender, which allowed us to adjust the relative amounts of the 800 ppm NO/N2 and 100% N2 supplies. Treating the patient with pure oxygen, we increased the flow of N2 through a flow regulator into the inspiratory circuit of the breathing cicuit until the FI O2 was 0.9. This provided a 1:10 dilution of the nitrogen gas. We then used the blender to adjust the relative amounts of N2 and […] to provide 0 to 80 ppm of NO.
# [5] = occasion #1, PGI2 5ng/kg/min i.v.
# [6] = occasion #2, PGI2 5ng/kg/min i.v.
structure (smiles),measurement,setting,value
"CCCCC[C@H](O)/C=C/[C@@H]1[C@H]2C/C(=C/CCCC(=O)O)O[C@H]2C[C@H]1O [PGI2, prostacyclin, reference compound]",QVA /QT,"[1]; PGI2, i.v.",57%
same,PAP and RVEF,"[1]; inhaled NO and i.v. PGI2, text",lowered PAP and improved RVEF
same,MAP,[1]; [5],81 mm Hg
same,PAP,[1]; [5],46 mm Hg
same,PCWP,[1]; [5],12 mm Hg
same,PaO2,[1]; [5],74 torr
same,QA /QT,[1]; [5],57%
same,VD /VT,[1]; [5],51%
same,low VD /Q,[1]; [5],0%
same,MAP,[1]; [6],86 mm Hg
same,PAP,[1]; [6],42 mm Hg
same,PCWP,[1]; [6],14 mm Hg
same,PaO2,[1]; [6],81 torr
same,RVEF,[1]; [6],42%
CC(=O)OC(C)C[N+](C)(C)C (centres unmarked) [methacholine],airway resistance,[2],stably increasing levels of airway resistance for up to one hour
"CC(C)(C)NCC(O)c1cc(O)cc(O)c1 (centres unmarked) [terbutaline, reference compound]",bronchodilating effects of NO plus terbutaline,[3],additive
"CCCCC[C@H](O)/C=C/[C@H]1[C@H](O)CC(=O)[C@@H]1CCCCCCC(=O)O [prostaglandin E1, reference compound]",effect of prostaglandin infusion on need for nitric oxide,[4],nitric oxide could not be discontinued without the return of dangerously low oxygen saturations
